Source: patent publication US11685732B2, “MYST family histone acetyltransferase inhibitors” (Epizyme, Inc., priority 2017, dated 2023)
Read-outs that look alike come from different tables or passages of the source.

What was measured:
KAT-5 = KAT-5 (Homo sapiens (Human), UniProt Q92993); assay: KAT-5 biochemical inhibition assay (SAMDI mass spectrometry)
How it was run: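 KAT-5 at 9 nM final was preincubated with serially diluted compound (2% DMSO) in 50 mM Tris pH 8.0 with 1 mM DTT. Reaction ran with 1 μM peptide substrate and 0.5 μM acetyl-CoA for 90 min at 25° C, was quenched with 0.5% formic acid, and was read by SAMDI-TOF mass spectrometry.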

KAT-6A = KAT-6A (Homo sapiens (Human), UniProt Q92794); assay: KAT-6A biochemical inhibition assay (SAMDI mass spectrometry)
How it was run: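 Enzyme (12.5 nM final) pre-incubated with serially diluted compounds (2% DMSO final) in 50 mM Tris pH 8.0 with Tween20, gelatin and 1 mM DTT. Reaction started with 1 μM peptide substrate and 1 μM acetyl-CoA, run 90 min at 25 °C, quenched with 0.5% formic acid, read by SAMDI-TOF mass spectrometry; IC50 derived.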

KAT-7 = KAT-7 (Homo sapiens (Human), UniProt O95251); assay: KAT-7 biochemical inhibition assay (SAMDI mass spectrometry)
How it was run: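 KAT-7 (6 nM) was pre-incubated with serially diluted compound (2% DMSO) in Tris pH 8.0 with DTT. Reaction with 1 μM peptide and 2 μM acetyl-CoA ran 120 min at 25 °C and was stopped with 0.5% formic acid. Acetylation was read by SAMDI-TOF mass spectrometry to give IC50.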

KAT-8 = KAT-8 (Homo sapiens (Human), UniProt Q9H7Z6); assay: KAT-8 biochemical inhibition assay (SAMDI mass spectrometry)
How it was run: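 Compounds in 2% DMSO pre-incubated with 12.5 nM enzyme in 50 mM Tris pH 8.0 with Tween20, gelatin and 1 mM DTT. Then 1 μM peptide and 5 μM acetyl-CoA were added, 90 min at 25 °C; formic acid stop and SAMDI-TOF mass spectrometry for IC50.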

Chain of KAT-7 (O95251 other isoform, or with tags, fused parts or gaps): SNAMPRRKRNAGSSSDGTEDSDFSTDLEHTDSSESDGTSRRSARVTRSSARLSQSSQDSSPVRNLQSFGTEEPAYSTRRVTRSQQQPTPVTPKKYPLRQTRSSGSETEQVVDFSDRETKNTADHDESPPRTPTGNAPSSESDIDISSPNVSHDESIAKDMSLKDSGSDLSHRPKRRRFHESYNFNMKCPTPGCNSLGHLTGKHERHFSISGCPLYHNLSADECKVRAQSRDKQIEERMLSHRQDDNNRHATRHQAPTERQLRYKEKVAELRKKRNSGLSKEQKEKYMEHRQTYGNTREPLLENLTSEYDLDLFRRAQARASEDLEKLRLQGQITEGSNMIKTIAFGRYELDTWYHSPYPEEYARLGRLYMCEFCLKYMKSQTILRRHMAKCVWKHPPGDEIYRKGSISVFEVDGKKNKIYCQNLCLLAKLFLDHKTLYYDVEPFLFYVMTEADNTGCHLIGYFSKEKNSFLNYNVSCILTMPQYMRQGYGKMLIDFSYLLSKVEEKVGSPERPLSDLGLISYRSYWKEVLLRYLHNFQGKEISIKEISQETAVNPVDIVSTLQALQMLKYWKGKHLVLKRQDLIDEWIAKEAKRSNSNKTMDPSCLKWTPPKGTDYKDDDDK
Chain of KAT-5 (Q92993 other isoform, or with tags, fused parts or gaps): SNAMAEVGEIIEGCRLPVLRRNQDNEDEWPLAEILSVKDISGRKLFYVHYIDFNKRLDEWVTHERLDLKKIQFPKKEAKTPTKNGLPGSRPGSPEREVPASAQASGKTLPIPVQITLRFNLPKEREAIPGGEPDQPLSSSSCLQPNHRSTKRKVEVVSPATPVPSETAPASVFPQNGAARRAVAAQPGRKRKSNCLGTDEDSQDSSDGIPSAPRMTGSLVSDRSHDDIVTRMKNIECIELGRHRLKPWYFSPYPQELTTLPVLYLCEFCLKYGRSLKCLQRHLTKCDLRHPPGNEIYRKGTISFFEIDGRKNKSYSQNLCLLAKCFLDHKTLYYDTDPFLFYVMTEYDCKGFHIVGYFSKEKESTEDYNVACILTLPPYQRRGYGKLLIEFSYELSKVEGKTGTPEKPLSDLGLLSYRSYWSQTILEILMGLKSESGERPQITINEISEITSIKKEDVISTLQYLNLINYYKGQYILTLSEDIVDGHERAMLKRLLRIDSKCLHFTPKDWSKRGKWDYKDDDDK
Chain of KAT-8 (Q9H7Z6 other isoform, or with tags, fused parts or gaps): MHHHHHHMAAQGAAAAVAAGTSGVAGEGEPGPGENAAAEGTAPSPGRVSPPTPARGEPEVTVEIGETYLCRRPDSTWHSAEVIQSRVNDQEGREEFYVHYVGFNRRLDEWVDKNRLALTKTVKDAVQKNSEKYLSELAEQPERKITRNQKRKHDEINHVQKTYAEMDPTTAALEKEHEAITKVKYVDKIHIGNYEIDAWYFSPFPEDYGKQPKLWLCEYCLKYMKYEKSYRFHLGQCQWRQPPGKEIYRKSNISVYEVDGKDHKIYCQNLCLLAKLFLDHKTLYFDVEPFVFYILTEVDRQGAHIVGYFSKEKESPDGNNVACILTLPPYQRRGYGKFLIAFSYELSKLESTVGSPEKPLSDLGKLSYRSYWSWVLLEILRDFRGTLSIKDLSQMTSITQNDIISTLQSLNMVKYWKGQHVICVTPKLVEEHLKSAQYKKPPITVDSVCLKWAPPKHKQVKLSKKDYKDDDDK
Chain of KAT-6A (Q92794 other isoform, or with tags, fused parts or gaps): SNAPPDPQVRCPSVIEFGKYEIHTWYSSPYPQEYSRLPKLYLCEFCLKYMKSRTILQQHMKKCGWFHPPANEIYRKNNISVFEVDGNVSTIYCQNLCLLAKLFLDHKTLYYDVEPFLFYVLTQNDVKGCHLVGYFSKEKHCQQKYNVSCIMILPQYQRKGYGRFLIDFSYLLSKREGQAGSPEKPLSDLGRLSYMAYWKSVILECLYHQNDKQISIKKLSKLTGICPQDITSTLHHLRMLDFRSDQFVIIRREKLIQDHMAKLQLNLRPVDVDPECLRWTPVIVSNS

Row | IC50 (KAT-5) | IC50 (KAT-6A) | IC50 (KAT-7) | IC50 (KAT-8) | IC50 (KAT-5; Table 6, comparative compounds) | IC50 (KAT-6A; Table 6, comparative compounds) | IC50 (KAT-7; Table 6, comparative compounds) | IC50 (KAT-8; Table 6, comparative compounds) | Compound
1 | < 10 µM | < 10 µM | < 10 µM | > 100 µM |  |  |  |  | CC(=O)N1CCCC(CS(=O)(=O)NNC(=O)c2cc(-c3cn(C)cn3)cc(Cl)c2F)C1 (stereo not drawn) [Compound I-10]
2 | 10 to 50 µM | 10 to 50 µM | < 10 µM | 10 to 50 µM |  |  |  |  | Cn1cnc(-c2cc(Cl)c(F)c(C(=O)NNS(=O)(=O)C[C@H]3CCC[C@@H](N)C3)c2)c1 [Compound I-253]
3 | 10 to 50 µM | 10 to 50 µM | < 10 µM | 10 to 50 µM |  |  |  |  | Cn1cnc(-c2cc(Cl)c(F)c(C(=O)NNS(=O)(=O)C[C@H]3CCC[C@H](N)C3)c2)c1 [Compound I-349]
4 | 10 to 50 µM | 10 to 50 µM | < 10 µM | 10 to 50 µM |  |  |  |  | CC(=O)N1CCC(CS(=O)(=O)NNC(=O)c2cc(-c3cn(C)cn3)cc(Cl)c2F)C1 (stereo not drawn) [Compound I-57]
5 | 10 to 50 µM | 10 to 50 µM | < 10 µM | 10 to 50 µM |  |  |  |  | Cn1cnc(-c2cc(Cl)c(F)c(C(=O)NNS(=O)(=O)CC3CN(S(C)(=O)=O)C3)c2)c1 [Compound I-220]
6 | < 10 µM | < 10 µM | < 10 µM | 50 to 100 µM |  |  |  |  | Cn1cnc(-c2cc(Cl)c(F)c(C(=O)NNS(=O)(=O)CC3CCCN(S(C)(=O)=O)C3)c2)c1 (stereo not drawn) [Compound I-53]
7 | < 10 µM | < 10 µM | < 10 µM | 10 to 50 µM |  |  |  |  | Cn1cnc(-c2cc(Cl)c(F)c(C(=O)NNS(=O)(=O)CCC3CCOCC3)c2)c1 [Compound I-244]
8 | 10 to 50 µM | 10 to 50 µM | < 10 µM | 10 to 50 µM |  |  |  |  | Cn1cnc(-c2cc(Cl)c(F)c(C(=O)NNS(=O)(=O)N3CCOCC3)c2)c1 [Compound I-108]
9 | 10 to 50 µM | 50 to 100 µM | < 10 µM | > 100 µM |  |  |  |  | Cn1cnc(-c2cc(Cl)c(F)c(C(=O)NNS(=O)(=O)C3CCCC3)c2)c1 [Compound I-15]
10 | < 10 µM | 10 to 50 µM | < 10 µM | 10 to 50 µM |  |  |  |  | Cn1cnc(-c2cc(Cl)c(F)c(C(=O)NNS(=O)(=O)C[C@@H]3CCOC3)c2)c1 [Compound I-372]
11 | 10 to 50 µM | 10 to 50 µM | < 10 µM | 10 to 50 µM |  |  |  |  | Cn1cnc(-c2cc(Cl)c(F)c(C(=O)NNS(=O)(=O)C[C@@H]3CCNC3)c2)c1 [Compound I-120]
12 | < 10 µM | < 10 µM | < 10 µM | 10 to 50 µM |  |  |  |  | CN(C)C(=O)N1CCC(CS(=O)(=O)NNC(=O)c2cc(-c3cn(C)cn3)cc(Cl)c2F)C1 (stereo not drawn) [Compound I-66]
13 | < 10 µM | < 10 µM | < 10 µM | 10 to 50 µM |  |  |  |  | Cn1cnc(-c2cc(Cl)c(F)c(C(=O)NNS(=O)(=O)CC3CC4CC4C3)c2)c1 (stereo not drawn) [Compound I-289]

The remaining lines, values behind:

Row | Compound | IC50 (KAT-5) | IC50 (KAT-6A) | IC50 (KAT-7) | IC50 (KAT-8) | IC50 (KAT-5; Table 6, comparative compounds) | IC50 (KAT-6A; Table 6, comparative compounds) | IC50 (KAT-7; Table 6, comparative compounds) | IC50 (KAT-8; Table 6, comparative compounds)
14 | Cc1cc(-c2cn(C)cn2)cc(C(=O)NNS(=O)(=O)CC2CCCNC2)c1F (stereo not drawn) [Compound I-133] | > 100 µM | > 100 µM | < 10 µM | > 100 µM |  |  |  | 
15 | COCCC(=O)N1CCC(CS(=O)(=O)NNC(=O)c2cc(-c3cn(C)cn3)cc(Cl)c2F)C1 (stereo not drawn) [Compound I-56] | 10 to 50 µM | 10 to 50 µM | < 10 µM | 10 to 50 µM |  |  |  | 
16 | Cn1cnc(-c2cc(Cl)c(F)c(C(=O)NNS(=O)(=O)C[C@H]3CC[C@H](NC(=O)OC(C)(C)C)CC3)c2)c1 [Compound I-96] | < 10 µM | < 10 µM | < 10 µM | 10 to 50 µM |  |  |  | 
17 | CN(C)C(=O)N[C@H]1CC[C@@H](CS(=O)(=O)NNC(=O)c2cc(-c3cn(C)cn3)cc(Cl)c2F)CC1 [Compound I-163] | < 10 µM | < 10 µM | < 10 µM | 10 to 50 µM |  |  |  | 
18 | CCNC(=O)N1CC(CS(=O)(=O)NNC(=O)c2cc(-c3cn(C)cn3)cc(Cl)c2F)C1 [Compound I-168] | 10 to 50 µM | 10 to 50 µM | < 10 µM | 10 to 50 µM |  |  |  | 
19 | COCCn1cnc(-c2cc(C)c(F)c(C(=O)NNS(=O)(=O)CC3CCCN(C(=O)COC)C3)c2)c1 (stereo not drawn) [Compound I-137] | 10 to 50 µM | 50 to 100 µM | 10 to 50 µM | > 100 µM |  |  |  | 
20 | CC(C)NC(=O)N1CC(CS(=O)(=O)NNC(=O)c2cc(-c3cn(C)cn3)cc(Cl)c2F)C1 [Compound I-204] | 10 to 50 µM | 10 to 50 µM | < 10 µM | 10 to 50 µM |  |  |  | 
21 | CCNC(=O)N(C)[C@H]1CC[C@@H](CS(=O)(=O)NNC(=O)c2cc(-c3cn(C)cn3)cc(Cl)c2F)CC1 [Compound I-363] | < 10 µM | 10 to 50 µM | < 10 µM | 10 to 50 µM |  |  |  | 
22 | CC(C)S(=O)(=O)N1CCC(CS(=O)(=O)NNC(=O)c2cc(-c3cn(C)cn3)cc(Cl)c2F)C1 (stereo not drawn) [Compound I-92] | < 10 µM | < 10 µM | < 10 µM | 10 to 50 µM |  |  |  | 
23 | Cn1cnc(-c2cc(Cl)c(F)c(C(=O)NNS(=O)(=O)C[C@H]3CC[C@H]4CC[C@@H]3N4)c2)c1 [Compound I-261] | 10 to 50 µM | 10 to 50 µM | 10 to 50 µM | 10 to 50 µM |  |  |  | 
24 | CC(=O)N[C@H]1CC[C@H](CS(=O)(=O)NNC(=O)c2cc(-c3cn(C)cn3)cc(Cl)c2F)CC1 [Compound I-101] | < 10 µM | < 10 µM | < 10 µM | 10 to 50 µM |  |  |  | 
25 | Cn1cnc(-c2cc(Cl)c(F)c(C(=O)NNS(=O)(=O)C[C@H]3CC[C@@H](N(C)C(=O)OC(C)(C)C)CC3)c2)c1 [Compound I-331] | < 10 µM | 10 to 50 µM | < 10 µM | 10 to 50 µM |  |  |  | 
26 | Cn1cnc(-c2cc(Cl)c(F)c(C(=O)NNS(=O)(=O)CC3CCCN(C(=O)C4CCC4)C3)c2)c1 (stereo not drawn) [Compound I-13] | < 10 µM | < 10 µM | < 10 µM | > 100 µM |  |  |  | 
27 | CCS(=O)(=O)N1CCC(CS(=O)(=O)NNC(=O)c2cc(-c3cn(C)cn3)cc(Cl)c2F)C1 (stereo not drawn) [Compound I-75] | < 10 µM | < 10 µM | < 10 µM | 10 to 50 µM |  |  |  | 
28 | CCNC(=O)NC1CCCC(CS(=O)(=O)NNC(=O)c2cc(-c3cn(C)cn3)cc(Cl)c2F)C1 (stereo not drawn) [Compound I-97] | < 10 µM | < 10 µM | < 10 µM | 10 to 50 µM |  |  |  | 
29 | Cn1cnc(-c2cc(Cl)c(F)c(C(=O)NNS(=O)(=O)C[C@H]3CCC[C@@H](NC(=O)OC(C)(C)C)C3)c2)c1 [Compound I-252] | < 10 µM | < 10 µM | < 10 µM | 10 to 50 µM |  |  |  | 
30 | Cn1cnc(-c2cc(Cl)c(F)c(C(=O)NNS(=O)(=O)C[C@H]3CC[C@H](NC(=O)Cc4cccnc4)CC3)c2)c1 [Compound I-258] | < 10 µM | < 10 µM | < 10 µM | 10 to 50 µM |  |  |  | 
31 | CCN(C)C(=O)NC1CCC(CS(=O)(=O)NNC(=O)c2cc(-c3cn(C)cn3)cc(Cl)c2F)C1 (stereo not drawn) [Compound I-291] | < 10 µM | 10 to 50 µM | < 10 µM | 10 to 50 µM |  |  |  | 
32 | CN(C)C(=O)NC1CCC(CS(=O)(=O)NNC(=O)c2cc(-c3cn(C)cn3)cc(Cl)c2F)C1 (stereo not drawn) [Compound I-336] | < 10 µM | < 10 µM | < 10 µM | 10 to 50 µM |  |  |  | 
33 | Cc1ncc(-c2cc(Cl)c(F)c(C(=O)NNS(=O)(=O)C3CCCCC3)c2)n1C [Compound I-59] | 10 to 50 µM | > 100 µM | > 100 µM | > 100 µM |  |  |  | 
34 | CN(C(=O)C1CCC1)C1CCC(CS(=O)(=O)NNC(=O)c2cc(-c3cn(C)cn3)cc(Cl)c2F)CC1 (stereo not drawn) [Compound I-317] | < 10 µM | < 10 µM | < 10 µM | 10 to 50 µM |  |  |  | 
35 | Cn1cnc(-c2cc(Cl)c(F)c(C(=O)NNS(=O)(=O)C[C@H]3CC[C@H](NC(N)=O)CC3)c2)c1 [Compound I-194] | < 10 µM | < 10 µM | < 10 µM | 10 to 50 µM |  |  |  | 
36 | Cc1cc(-c2cn(C)cn2)cc(C(=O)NNS(=O)(=O)CC2CCCCC2)c1F [Compound I-129] | < 10 µM | < 10 µM | < 10 µM | > 100 µM |  |  |  | 
37 | Cn1cnc(-c2cc(Cl)c(F)c(C(=O)NNS(=O)(=O)c3ccccc3)c2)c1 [Compound I-110] | < 10 µM | < 10 µM | < 10 µM | 10 to 50 µM |  |  |  | 
38 | Cc1cc(-c2ccccc2)cc(C(=O)NNS(=O)(=O)CC2CCCNC2)c1F (stereo not drawn) [D, reference compound] |  |  |  |  | 10 to 50 µM | > 100 µM | > 100 µM | > 100 µM
39 | CNC(=O)N1CCC(CS(=O)(=O)NNC(=O)c2cc(-c3cn(C)cn3)cc(Cl)c2F)C1 (stereo not drawn) [Compound I-78] | < 10 µM | 10 to 50 µM | < 10 µM | 10 to 50 µM |  |  |  | 
40 | Cc1cn(-c2cc(Cl)c(F)c(C(=O)NNS(=O)(=O)CC3CCOCC3)c2)cn1 [Compound I-49] | > 100 µM | > 100 µM | > 100 µM | > 100 µM |  |  |  | 
41 | COCCn1cnc(-c2cc(C)c(F)c(C(=O)NNS(=O)(=O)C3CCOCC3)c2)c1 [Compound I-138] | 10 to 50 µM | > 100 µM | 50 to 100 µM | > 100 µM |  |  |  | 
42 | CCC1CC(CS(=O)(=O)NNC(=O)c2cc(-c3cn(C)cn3)cc(Cl)c2F)CC1=O (stereo not drawn) [Compound I-255] | 10 to 50 µM | 10 to 50 µM | < 10 µM | 10 to 50 µM |  |  |  | 
